Experimental data as given in patent publication US12012412B2, “Solid forms of pyrazolo[3,4-d]pyrimidine compounds” (Pfizer Inc., priority 2021, dated 2024).
Converted amounts (≈) assume the structure as drawn.

How the values were obtained:
Type in all cases: physicochemical
[1] = True density of Solid Form A
[2] = Gravimetric analysis (TGA/EGA) of Solid Form A; conditions: heated at 10° C./minute
Protocol: 10.9587 mg of Solid Form A was placed in a platinum crucible. This was analysed on a TA Instruments Discovery ThermoGravimetric Analyser, using a method that heated the sample from 25° C. to 300° C. at 10° C./minute with a nitrogen purge gas; alternatively, approximately 5-10 mg of material was weighed into an open aluminum pan and loaded into a simultaneous thermogravimetric/differential thermal analyzer (TG/DTA) and held at room temperature. The sample was then heated at a rate of 10° C./min from 20° C. to 400° C. during which time the change in sample weight was recorded along with any differential thermal events (DTA). Nitrogen was used as the purge gas, at a flow rate of 300 cm^3/min.

[3] = Water sorption (dynamic vapor sorption) of Solid Form A; conditions: 25° C.
Protocol: Solid Form A is non-hygroscopic, absorbing less than 0.05% water at 90% RH, 25° C. See FIG. 7 for the isotherm plot.

[4] = Aqueous solubility of Solid Form A in biologically relevant pH conditions at 25° C.; conditions: thermodynamic from solid
[5] = Solubility of Solid Form A and amorphous Compound X in various solvents at room temperature
[6] = Organic solubility: gravimetric (TGA) solubility at 25° C.
[7] = Particle size of batches of Solid Form A
Excerpt: Primary particles from below 100 μm to around 500 μm in size, with soft agglomerates up to several millimeters, were observed. The D[4,3] of this material was 195 μm. This material was subsequently milled, to give far fewer large particles and an overall much smaller average primary particle size, giving a D[4,3] of 49.5 μm. See Table 8 for a comparison of particle size properties of various batches.

[8] = Chemical and physical stability of Solid Form A (real-time and accelerated storage); conditions: for Time through which chemically and physically stable: unmilled, bulk packaging
[9] = Physical stability of Solid Form A to milling
Protocol: Samples of Solid Form A were milled to reduce particle size.
Milled samples of Solid Form A were remilled, and exposed at 40° C./75% RH.

[10] = milled samples remilled, exposed at 40° C./75% RH

- True Density (crystal structure) ([1]; from crystal structure): 1.279 Mg/m^3
- True Density (measured) ([1]; measured): 1.29 Mg/m^3
- Water Content, Desorption ([3]; 0 % RH): 0 % w/w
- Water Content, Sorption ([3]; 0 % RH): 0 % w/w
- Water Content, Desorption ([3]; 10 % RH): 0.01 % w/w
- Water Content, Sorption ([3]; 10 % RH): 0.01 % w/w
- Water Content, Desorption ([3]; 20 % RH): 0.01 % w/w
- Water Content, Sorption ([3]; 20 % RH): 0.01 % w/w
- Hygroscopicity [3]: non-hygroscopic
- Water Content, Desorption ([3]; 30 % RH): 0.01 % w/w
- Water Content, Sorption ([3]; 30 % RH): 0.01 % w/w
- Water Content, Desorption ([3]; 40 % RH): 0.02 % w/w
- Water Content, Sorption ([3]; 40 % RH): 0.02 % w/w
- Water Content, Desorption ([3]; 50 % RH): 0.02 % w/w
- Water Content, Sorption ([3]; 50 % RH): 0.02 % w/w
- Water Content, Desorption ([3]; 60 % RH): 0.02 % w/w
- Water Content, Sorption ([3]; 60 % RH): 0.02 % w/w
- Water Content, Desorption ([3]; 70 % RH): 0.03 % w/w
- Water Content, Sorption ([3]; 70 % RH): 0.03 % w/w
- Water Content, Desorption ([3]; 80 % RH): 0.03 % w/w
- Water Content, Sorption ([3]; 80 % RH): 0.03 % w/w
- Water absorbed ([3]; 90% RH): less than 0.05%
- solubility ([4]; aqueous buffer, 100 mM Citrate buffer, pH 4.5, 25° C.): > 55.9 mg/mL
- solubility ([4]; aqueous buffer, 100 mM Citrate buffer, pH 6.0, 25° C.): > 52.2 mg/mL
- solubility ([4]; aqueous buffer, 100 mM Phosphate buffer, pH 6.5, 25° C.): > 53.3 mg/mL
- solubility ([4]; aqueous buffer, 100 mM Succinate buffer, pH 4.0, 25° C.): > 58.6 mg/mL
- solubility ([4]; aqueous buffer, 100 mM Succinate buffer, pH 5.5, 25° C.): > 52.8 mg/mL
- solubility ([4]; aqueous buffer, Phosphate buffered saline, pH 7.0, 25° C.): 42.1 mg/mL (≈ 106 mM)
- solubility ([4]; aqueous buffer, Phosphate buffered saline, pH 7.4, 25° C.): 27.6 mg/mL (≈ 69.8 mM)
- solubility ([4]; simulated gastric fluid, 0.01M HCl, pH 1.7, 25° C.): > 56.6 mg/mL
- Solubility (mg/ml) ([5]; 1,2-Xylene): >65.4 mg/mL
- Solubility (mmol) ([5]; 1,2-Xylene): >165 mmol
- Solubility (mg/ml) ([5]; Acetone): 49.4 mg/mL (≈ 125 mM)
- Solubility (mmol) ([5]; Acetone): 125 mmol
- Solubility (mmol) ([5]; Chloroform): >145 mmol
- Solubility (mmol) ([5]; Dioxane): >117 mmol
- Solubility (mg/ml) ([5]; EtOAc): 44.7 mg/mL (≈ 113 mM)
- Solubility (mmol) ([5]; EtOAc): 113 mmol
- Solubility (mmol) ([5]; EtOH): 160 mmol
- Solubility (mmol) ([5]; Glyme (1,2-Dimethoxyethane)): >159 mmol
- Solubility (mmol) ([5]; H2O (Water)): 89 mmol
- Solubility (mmol) ([5]; H2O-EtOH (Water/EtOH)): >75 mmol
- Solubility (mg/ml) ([5]; H2O-MeCN (Water/MeCN)): >27 mg/mL
- Solubility (mmol) ([5]; H2O-MeCN (Water/MeCN)): >68 mmol
- Solubility (mmol) ([5]; H2O-MeOH (Water/MeOH)): >87 mmol
- Solubility (mg/ml) ([5]; H2O-acetone (Water/acetone)): >33.3 mg/mL
- Solubility (mmol) ([5]; H2O-acetone (Water/acetone)): >84 mmol
- Solubility (mmol) ([5]; Heptane): 1 mmol
- Solubility (mg/ml) ([5]; IPA): 29.2 mg/mL (≈ 73.8 mM)
- Solubility (mmol) ([5]; IPA): 74 mmol
- Solubility (mmol) ([5]; MTBE): 17 mmol
- solubility ([5]; MTBE, organic solvent or mixture): 6.7 mg/mL (≈ 16.9 mM)
- Solubility (mg/ml) ([5]; MeCN): 47.8 mg/mL (≈ 121 mM)
- Solubility (mmol) ([5]; MeCN): 121 mmol
- Solubility (mmol) ([5]; MeOH): >181 mmol
- Solubility (mmol) ([5]; Methoxy ethanol): >188 mmol
- Solubility (mmol) ([5]; Nitromethane): >189 mmol
- Solubility (mmol) ([5]; THF): >147 mmol
- solubility ([5]; THF, organic solvent or mixture): > 58 mg/mL
- Solubility (mg/ml) ([5]; Toluene): 52.2 mg/mL (≈ 132 mM)
- Solubility (mmol) ([5]; Toluene): 132 mmol
- solubility ([5]; chloroform, organic solvent or mixture): > 57.5 mg/mL
- solubility ([5]; dioxane, organic solvent or mixture): > 46.3 mg/mL
- solubility ([5]; ethanol (EtOH), organic solvent or mixture, EtOH): 63.4 mg/mL (≈ 160 mM)
- solubility ([5]; glyme (1,2-dimethoxyethane), organic solvent or mixture): > 63 mg/mL
- solubility ([5]; heptane, organic solvent or mixture): 0.6 mg/mL (≈ 1.52 mM)
- solubility ([5]; methanol (MeOH), organic solvent or mixture, MeOH): > 71.4 mg/mL
- solubility ([5]; methoxy ethanol, organic solvent or mixture): > 74.5 mg/mL
- solubility ([5]; nitromethane, organic solvent or mixture): > 74.9 mg/mL
- solubility ([5]; water, H2O (Water)): 35.3 mg/mL (≈ 89.3 mM)
- solubility ([5]; water/EtOH, aqueous with cosolvent or surfactant or cyclodextrin, H2O-EtOH (Water/EtOH)): > 29.8 mg/mL
- solubility ([5]; water/MeOH, aqueous with cosolvent or surfactant or cyclodextrin, H2O-MeOH (Water/MeOH)): > 34.2 mg/mL
- solubility ([6]; Acetone): 125 mmol
- solubility ([6]; EtOAc): 113 mmol
- solubility ([6]; EtOH): 160 mmol
- solubility ([6]; H2O): 89 mmol
- solubility ([6]; Heptane): 1 mmol
- solubility ([6]; IPA): 74 mmol
- solubility ([6]; MTBE): 17 mmol
- solubility ([6]; MeCN): 121 mmol
- solubility ([6]; Toluene): 132 mmol
- solubility ([6]; ethanol (EtOH), organic solvent or mixture, thermodynamic from solid, EtOH, read-out: Solubility): 63.4 mg/mL (≈ 160 mM)
- solubility ([6]; ethyl acetate (EtOAc), organic solvent or mixture, thermodynamic from solid, EtOAc, read-out: Solubility): 44.7 mg/mL (≈ 113 mM)
- solubility ([6]; organic solvent or mixture, thermodynamic from solid, Acetone, read-out: Solubility): 49.4 mg/mL (≈ 125 mM)
- solubility ([6]; organic solvent or mixture, thermodynamic from solid, Heptane, read-out: Solubility): 0.6 mg/mL (≈ 1.52 mM)
- solubility ([6]; organic solvent or mixture, thermodynamic from solid, IPA, read-out: Solubility): 29.2 mg/mL (≈ 73.8 mM)
- solubility ([6]; organic solvent or mixture, thermodynamic from solid, MTBE, read-out: Solubility): 6.7 mg/mL (≈ 16.9 mM)
- solubility ([6]; organic solvent or mixture, thermodynamic from solid, MeCN, read-out: Solubility): 47.8 mg/mL (≈ 121 mM)
- solubility ([6]; organic solvent or mixture, thermodynamic from solid, Toluene, read-out: Solubility): 52.2 mg/mL (≈ 132 mM)
- solubility ([6]; water, thermodynamic from solid, H2O, read-out: Solubility): 35.3 mg/mL (≈ 89.3 mM)
- Particle size D[4, 3] ([7]; after milling): 49.5 μm
- Particle size D[4, 3] ([7]; unmilled material): 195 μm
- Stability on storage ([8]; milled, 70° C./75% RH, 1 week): no change in stability
- Time through which chemically and physically stable ([8]; 40° C./75% RH accelerated conditions): ≥ 6 months
- Time through which chemically and physically stable ([8]; room temperature conditions (63 months @ 15-30° C. and 21 months at 25° C./60% RH)): ≥ 84 months
- Change in crystallinity (XRPD) [9, 10]: no sign of a decrease in crystallinity
- Form change (XRPD) [9, 10]: no sign of form change
- Impact of milling upon polymorphic form ([9]; milled to reduce particle size): No impact upon polymorphic form
SMILES: C[C@@H]1CN(Cc2ncccn2)C[C@H]1c1nc2c(cnn2C2CCOCC2)c(=O)[nH]1 [Solid Form A, 6-((3S,4S)-4-methyl-1-(pyrimidin-2-ylmethyl)pyrrolidin-3-yl)-1-(tetrahydro-2H-pyran-4-yl)-1,5-dihydro-4H-pyrazolo[3,4-d]pyrimidin-4-one]
- Temperature until which no significant degradation is seen (TGA) [2]: degradation until approximately 240 °C See FIG. 3.
